# Results as given in US20120270929A1, “MODULATION OF TTC39 EXPRESSION TO INCREASE HDL” (ISIS Pharmaceuticals, Inc., priority 2009, published 2012).
# pIC50: −log10 of the molar value. Oligonucleotides are written 5' to 3', each unit as a sugar letter and its base; * is a phosphorothioate linkage, no mark a phosphodiester; rarer units and linkages stand in square brackets, end groups in braces. Plain capitals give the bases only. e = 2'-O-(2-methoxyethyl) (MOE); [5mC] = 5-methylcytosine; d = 2'-deoxy (DNA)
# Tested on: murine TTC39C mRNA
# Assay: Dose-dependent antisense inhibition of murine TTC39C in mouse primary hepatocytes
# Format: cell-based
# Conditions: 500.0 nM, electroporation, ~16 h
# Protocol: Thirty antisense oligonucleotides were selected from the study described in Example 8 and further tested at various doses in mouse primary hepatocytes. Cells were plated at a density of 30,000 cells per well and transfected using electroporation with 500 nM, 1,000 nM, 2,000 nM, 4,000 nM, and 8,000 nM concentrations of antisense oligonucleotide, as specified in Table 30. After a treatment period of approximately 16 hours, RNA was isolated from the cells and TTC39C mRNA levels were measured by quantitative real-time PCR. Murine primer probe set RTS3266 was used to measure mRNA levels. TTC39C mRNA levels were adjusted according to total RNA content, as measured by RIBOGREEN®. Results are presented as percent inhibition of TTC39C, relative to untreated control cells.
row,Substance,percent inhibition of TTC39C mRNA [%]
1,ISIS 474654: 5-10-5 MOE gapmer antisense oligonucleotide targeting murine TTC39C (antisense eT*e[5mC]*eA*eG*e[5mC]*dT*dA*d[5mC]*dA*dG*dA*dA*d[5mC]*dG*d[5mC]*eA*eG*eG*eG*eT),11

# Same assay, conditions: 1000.0 nM, electroporation, ~16 h
row,Substance,percent inhibition of TTC39C mRNA [%]
1,ISIS 474654: 5-10-5 MOE gapmer antisense oligonucleotide targeting murine TTC39C (antisense eT*e[5mC]*eA*eG*e[5mC]*dT*dA*d[5mC]*dA*dG*dA*dA*d[5mC]*dG*d[5mC]*eA*eG*eG*eG*eT),14

# Same assay, conditions: 2000.0 nM, electroporation, ~16 h
row,Substance,percent inhibition of TTC39C mRNA [%]
1,ISIS 474654: 5-10-5 MOE gapmer antisense oligonucleotide targeting murine TTC39C (antisense eT*e[5mC]*eA*eG*e[5mC]*dT*dA*d[5mC]*dA*dG*dA*dA*d[5mC]*dG*d[5mC]*eA*eG*eG*eG*eT),38

# Same assay, conditions: 4000.0 nM, electroporation, ~16 h
row,Substance,percent inhibition of TTC39C mRNA [%]
1,ISIS 474654: 5-10-5 MOE gapmer antisense oligonucleotide targeting murine TTC39C (antisense eT*e[5mC]*eA*eG*e[5mC]*dT*dA*d[5mC]*dA*dG*dA*dA*d[5mC]*dG*d[5mC]*eA*eG*eG*eG*eT),60

# Same assay, conditions: 8000.0 nM, electroporation, ~16 h
row,Substance,percent inhibition of TTC39C mRNA [%]
1,ISIS 474654: 5-10-5 MOE gapmer antisense oligonucleotide targeting murine TTC39C (antisense eT*e[5mC]*eA*eG*e[5mC]*dT*dA*d[5mC]*dA*dG*dA*dA*d[5mC]*dG*d[5mC]*eA*eG*eG*eG*eT),74

# Same assay, conditions: mouse primary hepatocytes, electroporation, ~16 h
row,Substance,pIC50
1,ISIS 474654: 5-10-5 MOE gapmer antisense oligonucleotide targeting murine TTC39C (antisense eT*e[5mC]*eA*eG*e[5mC]*dT*dA*d[5mC]*dA*dG*dA*dA*d[5mC]*dG*d[5mC]*eA*eG*eG*eG*eT),5.51

# Tested on: murine TTC39B mRNA
# Assay: Antisense inhibition of murine TTC39B in mouse primary hepatocytes, single dose
# Format: cell-based
# Conditions: 100 nM, cytofectin, ~24 h, vs untreated control; gapmers targeted to SEQ ID NO: 6
# Protocol: Antisense oligonucleotides targeted to a TTC39B nucleic acid were tested for their effects on TTC39B mRNA in vitro. Cultured mouse primary hepatocytes at a density of 10,000 cells per well were transfected using cytofectin reagent with 100 nM antisense oligonucleotide. After a treatment period of approximately 24 hours, RNA was isolated from the cells and TTC39B mRNA levels were measured by quantitative real-time PCR. TTC39B mRNA levels were adjusted according to total RNA content, as measured by RIBOGREEN®. Results are presented as percent inhibition of TTC39B, relative to untreated control cells.
# The chimeric antisense oligonucleotides in Tables 1 and 2 were designed as 5-10-5 MOE gapmers. The gapmers are 20 nucleotides in length, wherein the central gap segment is comprised of 10 2′-deoxynucleotides and is flanked on both sides (in the 5′ and 3′ directions) by wings comprising 5 nucleotides each. Each nucleotide in the 5′ wing segment and each nucleotide in the 3′ wing segment has a 2′-MOE modification. The internucleoside linkages throughout each gapmer are phosphorothioate (P═S) linkages. All cytosine residues throughout each gapmer are 5-methylcytosines. “Target start site” indicates the 5′-most nucleotide to which the gapmer is targeted. “Target stop site” indicates the 3′-most nucleotide to which the gapmer is targeted. Each gapmer listed in Table 1 is targeted to SEQ ID NO: 6 (GENBANK Accession No. NM_027238.2) and each gapmer listed in Table 2 is targeted to SEQ ID NO: 10 (the complement of GENBANK Accession No. NT—039260.7 truncated at nucleotides 22491001 to 22601000), SEQ ID NO: 11 (GENBANK Accession No. BY244623.1), SEQ ID NO: 12 (GENBANK Accession No. BY260936), SEQ ID NO: 13 (GENBANK Accession No. BM935568.1) or SEQ ID NO: 14 (GENBANK Accession No. BY728780.1).
row,Substance,% inhibition of murine TTC39B mRNA [%]
1,ATCCACATTAATTCCCAGTA (antisense eA*eT*e[5mC]*e[5mC]*eA*d[5mC]*dA*dT*dT*dA*dA*dT*dT*d[5mC]*d[5mC]*e[5mC]*eA*eG*eT*eA) [ISIS 447120],65
2,GACTTTTAATTCAAAGTCCT (antisense eG*eA*e[5mC]*eT*eT*dT*dT*dA*dA*dT*dT*d[5mC]*dA*dA*dA*eG*eT*e[5mC]*e[5mC]*eT) [ISIS 447153],58
3,GCGCCTTCCCGGAGCTGCAG (antisense eG*e[5mC]*eG*e[5mC]*e[5mC]*dT*dT*d[5mC]*d[5mC]*d[5mC]*dG*dG*dA*dG*d[5mC]*eT*eG*e[5mC]*eA*eG) [ISIS 447116],56
4,GGCTCTGGGTTCAGCCCAGC (antisense eG*eG*e[5mC]*eT*e[5mC]*dT*dG*dG*dG*dT*dT*d[5mC]*dA*dG*d[5mC]*e[5mC]*e[5mC]*eA*eG*e[5mC]) [ISIS 447098],44
5,TCCAAGGCATCTTCAAAGAT (antisense eT*e[5mC]*e[5mC]*eA*eA*dG*dG*d[5mC]*dA*dT*d[5mC]*dT*dT*d[5mC]*dA*eA*eA*eG*eA*eT) [ISIS 447101],36
6,ACAAAGTGAAAGCCGCTGGT (antisense eA*e[5mC]*eA*eA*eA*dG*dT*dG*dA*dA*dA*dG*d[5mC]*d[5mC]*dG*e[5mC]*eT*eG*eG*eT) [ISIS 447103],64
7,GGCAGAGTATAAGAATTTCT (antisense eG*eG*e[5mC]*eA*eG*dA*dG*dT*dA*dT*dA*dA*dG*dA*dA*eT*eT*eT*e[5mC]*eT) [ISIS 447133],56
8,CCGCACACCCACAGGGAACT (antisense e[5mC]*e[5mC]*eG*e[5mC]*eA*d[5mC]*dA*d[5mC]*d[5mC]*d[5mC]*dA*d[5mC]*dA*dG*dG*eG*eA*eA*e[5mC]*eT) [ISIS 447099],56
9,GTTCCGGATCAGTCCGTGGA (antisense eG*eT*eT*e[5mC]*e[5mC]*dG*dG*dA*dT*d[5mC]*dA*dG*dT*d[5mC]*d[5mC]*eG*eT*eG*eG*eA) [ISIS 447132],58
10,TCCACTCGGCTGCCCACGAG (antisense eT*e[5mC]*e[5mC]*eA*e[5mC]*dT*d[5mC]*dG*dG*d[5mC]*dT*dG*d[5mC]*d[5mC]*d[5mC]*eA*e[5mC]*eG*eA*eG) [ISIS 447100],62
11,TTATACAAAAATGCCAACTC (antisense eT*eT*eA*eT*eA*d[5mC]*dA*dA*dA*dA*dA*dT*dG*d[5mC]*d[5mC]*eA*eA*e[5mC]*eT*e[5mC]) [ISIS 447129],34
12,GCAGCCATGGCCCTGGGTCA (antisense eG*e[5mC]*eA*eG*e[5mC]*d[5mC]*dA*dT*dG*dG*d[5mC]*d[5mC]*d[5mC]*dT*dG*eG*eG*eT*e[5mC]*eA) [ISIS 447141],40
13,CTTTATTGTACCTGCCAGTC (antisense e[5mC]*eT*eT*eT*eA*dT*dT*dG*dT*dA*d[5mC]*d[5mC]*dT*dG*d[5mC]*e[5mC]*eA*eG*eT*e[5mC]) [ISIS 447134],53
14,AGTATGAGGGAGCCATTTGG (antisense eA*eG*eT*eA*eT*dG*dA*dG*dG*dG*dA*dG*d[5mC]*d[5mC]*dA*eT*eT*eT*eG*eG) [ISIS 447117],47
15,TTTGGCAGGTTTGTAAAGCG (antisense eT*eT*eT*eG*eG*d[5mC]*dA*dG*dG*dT*dT*dT*dG*dT*dA*eA*eA*eG*e[5mC]*eG) [ISIS 447107],61
16,GTCCGATGGAGATCTAGAGA (antisense eG*eT*e[5mC]*e[5mC]*eG*dA*dT*dG*dG*dA*dG*dA*dT*d[5mC]*dT*eA*eG*eA*eG*eA) [ISIS 447102],84
17,CCCCGTTCCAAGCTTGACTC (antisense e[5mC]*e[5mC]*e[5mC]*e[5mC]*eG*dT*dT*d[5mC]*d[5mC]*dA*dA*dG*d[5mC]*dT*dT*eG*eA*e[5mC]*eT*e[5mC]) [ISIS 447112],62
18,GTTTTTCACTTTCCACAACG (antisense eG*eT*eT*eT*eT*dT*d[5mC]*dA*d[5mC]*dT*dT*dT*d[5mC]*d[5mC]*dA*e[5mC]*eA*eA*e[5mC]*eG) [ISIS 447128],56
19,TGTTTCCAGAAAATCCAATA (antisense eT*eG*eT*eT*eT*d[5mC]*d[5mC]*dA*dG*dA*dA*dA*dA*dT*d[5mC]*e[5mC]*eA*eA*eT*eA) [ISIS 447115],56

# Same assay, conditions: 100 nM, cytofectin, ~24 h, vs untreated control; gapmers targeted to SEQ ID NO: 10-14
row,Substance,% inhibition of murine TTC39B mRNA [%]
1,ACTCAGTCATACTTTTGGCA (antisense eA*e[5mC]*eT*e[5mC]*eA*dG*dT*d[5mC]*dA*dT*dA*d[5mC]*dT*dT*dT*eT*eG*eG*e[5mC]*eA) [ISIS 447168],35
2,GCCCATGCACGGGTGGAGGA (antisense eG*e[5mC]*e[5mC]*e[5mC]*eA*dT*dG*d[5mC]*dA*d[5mC]*dG*dG*dG*dT*dG*eG*eA*eG*eG*eA) [ISIS 447156],16
3,GGAGATGTGTGTACGGCAGC (antisense eG*eG*eA*eG*eA*dT*dG*dT*dG*dT*dG*dT*dA*d[5mC]*dG*eG*e[5mC]*eA*eG*e[5mC]) [ISIS 447161],14
4,TCCAGATCATTATGTTTACA (eT*e[5mC]*e[5mC]*eA*eG*dA*dT*d[5mC]*dA*dT*dT*dA*dT*dG*dT*eT*eT*eA*e[5mC]*eA; antisense) [ISIS 447174],50
5,AGCCTTGTTCACTGGGAAGA (antisense eA*eG*e[5mC]*e[5mC]*eT*dT*dG*dT*dT*d[5mC]*dA*d[5mC]*dT*dG*dG*eG*eA*eA*eG*eA) [ISIS 447162],59
6,GCTTACCTTGGACCATTTAC (eG*e[5mC]*eT*eT*eA*d[5mC]*d[5mC]*dT*dT*dG*dG*dA*d[5mC]*d[5mC]*dA*eT*eT*eT*eA*e[5mC]; antisense) [ISIS 447173],59
7,GAATTATTTATTCTCACACC (antisense eG*eA*eA*eT*eT*dA*dT*dT*dT*dA*dT*dT*d[5mC]*dT*d[5mC]*eA*e[5mC]*eA*e[5mC]*e[5mC]) [ISIS 447167],56
8,CCTTACCAAATTAAAGGCCC (antisense e[5mC]*e[5mC]*eT*eT*eA*d[5mC]*d[5mC]*dA*dA*dA*dT*dT*dA*dA*dA*eG*eG*e[5mC]*e[5mC]*e[5mC]) [ISIS 447171],23
9,CGGAGATCAGTTTCTTCACT (antisense e[5mC]*eG*eG*eA*eG*dA*dT*d[5mC]*dA*dG*dT*dT*dT*d[5mC]*dT*eT*e[5mC]*eA*e[5mC]*eT) [ISIS 447165],50
10,CTGATGAACTTGATTTAGCC (antisense e[5mC]*eT*eG*eA*eT*dG*dA*dA*d[5mC]*dT*dT*dG*dA*dT*dT*eT*eA*eG*e[5mC]*e[5mC]) [ISIS 447166],0
11,ATCATATTTTCATCCTGAAA (antisense eA*eT*e[5mC]*eA*eT*dA*dT*dT*dT*dT*d[5mC]*dA*dT*d[5mC]*d[5mC]*eT*eG*eA*eA*eA) [ISIS 447170],35
